pIC50: −log10 of the molar value.
What follows are molecules tested against T1, human CRTH2 (Homo sapiens, UniProt Q9Y5Y4) (assay: Human CRTH2 Receptor Binding Assay (whole cell, [3H]ramatroban)). Conditions: whole CHO-K1 cells stably expressing human CRTH2 and G-alpha16; 20 nM [3H]ramatroban; 1 hour, room temperature.
T1 sequence (Q9Y5Y4 1-395): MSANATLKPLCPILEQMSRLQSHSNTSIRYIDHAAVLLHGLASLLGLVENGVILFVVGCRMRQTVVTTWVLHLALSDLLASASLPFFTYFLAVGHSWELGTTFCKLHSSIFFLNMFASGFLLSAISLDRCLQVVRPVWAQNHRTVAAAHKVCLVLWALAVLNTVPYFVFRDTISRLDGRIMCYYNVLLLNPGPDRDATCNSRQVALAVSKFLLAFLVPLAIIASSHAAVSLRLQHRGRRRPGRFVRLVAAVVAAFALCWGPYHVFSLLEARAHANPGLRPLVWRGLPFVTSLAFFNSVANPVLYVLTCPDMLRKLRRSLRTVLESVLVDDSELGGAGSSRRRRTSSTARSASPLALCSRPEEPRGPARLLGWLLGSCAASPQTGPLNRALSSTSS
Set-up: expressed in transfected cells; host or cells: CHO-K1
Description: A whole cell receptor binding assay using [^3H]ramatroban as the competing radioactive ligand was employed to evaluate the compound binding activity to human CRTH2. The radioactive ligand [^3H]ramatroban was synthesized according to Sugimoto et. al. (Eur. J. Pharmacol. 524, 30-37, 2005) to a specific activity of 42 Ci/mmol.
A cell line stably expressing human CRTH2 was established by transfecting CHO-K1 cells with two mammalian expression vectors that harbored human CRTH2 and G-alpha16 cDNAs, respectively, using FuGene® 6 transfection reagent (from Roche). Stable clones expressing CRTH2 were selected by staining each clone with BM16 (BD Pharmingen™ from BD Biosciences, a division of Becton, Dickinson and Company), which is a rat monoclonal antibody to human CRTH2. The cells were maintained as monolayer cultures in Ham's F-12 medium containing 10% fetal bovine serum, 100 units/mL penicillin, 100 μg/mL streptomycin, 2 mM glutamine, 0.5 mg/mL G418 (geneticin) for CRTH2, and 0.2 mg/mL hygromycin-B (for G-alpha 16). For whole cell receptor binding assay, the monolayer cells were rinsed once with PBS (phosphate buffered saline), dissociated using ethylenediaminetetraacetate (Versene™ EDTA from Lonza Inc.), and suspended in PBS containing 10 mM MgCl2 and 0.06% BSA (bovine serum albumin) at 1.5×10^6 cells/mL.
The binding reactions (0.2 mL) were performed in 96-well plates at room temperature in PBS containing 1.5×10^5 cells, 10 mM MgCl2, 0.06% BSA, 20 nM [^3H]ramatroban, and test compound at various concentrations. After 1 hour of binding reactions, the cells were harvested on GF™/B filter microplates (microtiter plates with embedded glass fiber from PerkinElmer, Inc.) and washed 5 times with PBS using a Filtermate™ Harvester (a cell harvester that harvests and washes cells from microplates from PerkinElmer, Inc.). The radioactivities bound to the cells were determined using a microplate scintillation counter (TopCount® NXT, from PerkinElmer, Inc.) after adding 50 μL of Microscint™ 20 scintillation fluid (from PerkinElmer, Inc.) to each well of the filter plates. The radioactivity from non-specific binding was determined by replacing compound with 10 μM of 15(R)-15-methyl PGD2 (from Cayman Chemical Company) in the reaction mixtures. The radioactivity bound to the cells in the absence of compound (total binding) was determined by replacing compound with 0.25% of DMSO (dimethyl sulfoxide) in the reaction mixture. Specific binding data were obtained by subtracting the radioactivity of non-specific binding from each binding data.
The IC50 value is defined as the concentration of the tested compound that is required for 50% inhibition of total specific binding. In order to calculate the IC50 value, the percent inhibition data were determined for 7 concentrations for each compound. The percent inhibition for a compound at each concentration was calculated according to the following formula, [1-(specific binding in the presence of compound)/(total specific binding)]×100. The IC50 value was then obtained by fitting the percent inhibition data to a sigmoidal dose-response (4 parameter logistic) model in the XLfit® software Excel add-in program [from ID Business Solutions Ltd., model 205, where F(x)=(A+(B−A)/(1+((C/x)^D)))].

Compound | pIC50
COc1cccc(N2CCN(C(=O)c3c(C)c(CC(=O)O)cc4ccc(F)cc34)CC2)c1 [Example 2-9, {6-Fluoro-4-[4-(3-methoxy-phenyl)-piperazine-1-carbonyl]-3-methyl-naphthalen-2-yl}-acetic acid] | 7.20
Cc1c(CC(=O)O)cc2ccc(F)cc2c1C(=O)N1CCN(c2cc(C(F)(F)F)cc(C(F)(F)F)c2)CC1 [Example 2-11, {4-[4-(3,5-Bis-trifluoromethyl-phenyl)-piperazine-1-carbonyl]-6-fluoro-3-methyl-naphthalen-2-yl}-acetic acid] | 6.70
COc1ccc(N2CCN(C(=O)c3c(C)c(CC(=O)O)cc4ccc(F)cc34)CC2)cc1 [Example 2-12, {6-Fluoro-4-[4-(4-methoxy-phenyl)-piperazine-1-carbonyl]-3-methyl-naphthalen-2-yl}-acetic acid] | 6.97
Cc1c(CC(=O)O)cc2ccc(F)cc2c1C(=O)N1CCN(c2ccc(F)cc2F)CC1 [Example 2-13, {4-[4-(2,4-Difluoro-phenyl)-piperazine-1-carbonyl]-6-fluoro-3-methyl-naphthalen-2-yl}-acetic acid] | 6.86
COc1cc(OC)cc(N2CCN(C(=O)c3c(C)c(CC(=O)O)cc4ccc(F)cc34)CC2)c1 [Example 2-14, {4-[4-(3,5-Dimethoxy-phenyl)-piperazine-1-carbonyl]-6-fluoro-3-methyl-naphthalen-2-yl}-acetic acid] | 7.18
Cc1c(CC(=O)O)cc2ccc(F)cc2c1C(=O)N1CCN(c2ccccc2Cl)CC1 [Example 2-20, {4-[4-(2-Chloro-phenyl)-piperazine-1-carbonyl]-6-fluoro-3-methyl-naphthalen-2-yl}-acetic acid] | 6.90
Cc1c(CC(=O)O)cc2ccc(F)cc2c1C(=O)N1CCN(c2c(Cl)cncc2Cl)CC1 [Example 2-23, {4-[4-(3,5-Dichloro-pyridin-4-yl)-piperazine-1-carbonyl]-6-fluoro-3-methyl-naphthalen-2-yl}-acetic acid] | 7.20
CC(C)(C)OC(=O)N1CCC(Oc2cc(CC(=O)O)cc3ccc(F)cc23)CC1 [Example 3-1, 4-(3-Carboxymethyl-7-fluoro-naphthalen-1-yloxy)-piperidine-1-carboxylic acid tert-butyl ester] | 7.35
CCC(=O)N1CCC(Oc2cc(CC(=O)O)cc3ccc(F)cc23)CC1 [Example 5-2, [6-Fluoro-4-(1-propionyl-piperidin-4-yloxy)-naphthalen-2-yl]-acetic acid] | 6.92
CC(C)C(=O)N1CCC(Oc2cc(CC(=O)O)cc3ccc(F)cc23)CC1 [Example 5-3, [6-Fluoro-4-(1-isobutyryl-piperidin-4-yloxy)-naphthalen-2-yl]-acetic acid] | 6.85
O=C(O)Cc1cc(OC2CCN(C(=O)C3CC3)CC2)c2cc(F)ccc2c1 [Example 5-4, [4-(1-Cyclopropanecarbonyl-piperidin-4-yloxy)-6-fluoro-naphthalen-2-yl]-acetic acid] | 7.17
O=C(O)Cc1cc(OC2CCN(C(=O)C3CCCC3)CC2)c2cc(F)ccc2c1 [Example 5-5, [4-(1-Cyclopentanecarbonyl-piperidin-4-yloxy)-6-fluoro-naphthalen-2-yl]-acetic acid] | 7.27

Now those with a higher pIC50, led by results:

pIC50 | Compound
7.57 | Cc1ccc(N2CCN(C(=O)c3c(C)c(CC(=O)O)cc4ccc(F)cc34)CC2)cc1 [Example 2-16, [6-Fluoro-3-methyl-4-(4-p-tolyl-piperazine-1-carbonyl)-naphthalen-2-yl]-acetic acid]
7.66 | Cc1c(CC(=O)O)cc2ccc(F)cc2c1C(=O)N1CCN(c2cc(Cl)cc(Cl)c2)CC1 [Example 2-17, {4-[4-(3,5-Dichloro-phenyl)-piperazine-1-carbonyl]-6-fluoro-3-methyl-naphthalen-2-yl}-acetic acid]
8.03 | Cc1c(CC(=O)O)cc2ccc(F)cc2c1C(=O)N1CCN(c2ccc(Cl)cc2)CC1 [Example 2-18, {4-[4-(4-Chloro-phenyl)-piperazine-1-carbonyl]-6-fluoro-3-methyl-naphthalen-2-yl}-acetic acid]
8.00 | Cc1c(CC(=O)O)cc2ccc(F)cc2c1C(=O)N1CCN(c2ccc(C(F)(F)F)cc2)CC1 [Example 2-19, {6-Fluoro-3-methyl-4-[4-(4-trifluoromethyl-phenyl)-piperazine-1-carbonyl]-naphthalen-2-yl}-acetic acid]
7.72 | Cc1c(CC(=O)O)cc2ccc(F)cc2c1C(=O)N1CCN(c2cccc(Cl)c2)CC1 [Example 2-21, {4-[4-(3-Chloro-phenyl)-piperazine-1-carbonyl]-6-fluoro-3-methyl-naphthalen-2-yl}-acetic acid]
7.95 | Cc1c(CC(=O)O)cc2ccc(F)cc2c1C(=O)N1CCN(c2ccc(C(F)(F)F)cn2)CC1 [Example 2-22, {6-Fluoro-3-methyl-4-[4-(5-trifluoromethyl-pyridin-2-yl)-piperazine-1-carbonyl]-naphthalen-2-yl}-acetic acid]
7.66 | Cc1c(CC(=O)O)cc2ccc(F)cc2c1C(=O)N1CCN(c2ccc(C#N)cc2)CC1 [Example 2-24, {4-[4-(4-Cyano-phenyl)-piperazine-1-carbonyl]-6-fluoro-3-methyl-naphthalen-2-yl}-acetic acid]
8.03 | CS(=O)(=O)N1CCC(Oc2cc(CC(=O)O)cc3ccc(F)cc23)CC1 [Example 4-1, [6-Fluoro-4-(1-methanesulfonyl-piperidin-4-yloxy)-naphthalen-2-yl]-acetic acid]
7.52 | CC(C)S(=O)(=O)N1CCC(Oc2cc(CC(=O)O)cc3ccc(F)cc23)CC1 [Example 4-3, {6-Fluoro-4-[1-(propane-2-sulfonyl)-piperidin-4-yloxy]-naphthalen-2-yl}-acetic acid]
7.60 | O=C(O)Cc1cc(OC2CCN(S(=O)(=O)C3CC3)CC2)c2cc(F)ccc2c1 [Example 4-4, [4-(1-Cyclopropanesulfonyl-piperidin-4-yloxy)-6-fluoro-naphthalen-2-yl]-acetic acid]
8.00 | O=C(O)Cc1cc(OC2CCN(S(=O)(=O)C3CCCC3)CC2)c2cc(F)ccc2c1 [Example 4-5, [4-(1-Cyclopentanesulfonyl-piperidin-4-yloxy)-6-fluoro-naphthalen-2-yl]-acetic acid]
8.49 | O=C(O)Cc1cc(OC2CCN(S(=O)(=O)c3ccccc3)CC2)c2cc(F)ccc2c1 [Example 4-6, [4-(1-Benzenesulfonyl-piperidin-4-yloxy)-6-fluoro-naphthalen-2-yl]-acetic acid]
8.30 | O=C(O)Cc1cc(OC2CCN(S(=O)(=O)c3cccc(F)c3)CC2)c2cc(F)ccc2c1 [Example 4-7, {6-Fluoro-4-[1-(3-fluoro-benzenesulfonyl)-piperidin-4-yloxy]-naphthalen-2-yl}-acetic acid]
8.62 | O=C(O)Cc1cc(OC2CCN(S(=O)(=O)c3ccc(F)cc3)CC2)c2cc(F)ccc2c1 [Example 4-8, {6-Fluoro-4-[1-(4-fluoro-benzenesulfonyl)-piperidin-4-yloxy]-naphthalen-2-yl}-acetic acid]
8.57 | O=C(O)Cc1cc(OC2CCN(S(=O)(=O)Cc3ccccc3)CC2)c2cc(F)ccc2c1 [Example 4-10, [6-Fluoro-4-(1-phenylmethanesulfonyl-piperidin-4-yloxy)-naphthalen-2-yl]-acetic acid]
7.87 | O=C(O)Cc1cc(OC2CCN(C(=O)c3ccccc3)CC2)c2cc(F)ccc2c1 [Example 5-6, [4-(1-Benzoyl-piperidin-4-yloxy)-6-fluoro-naphthalen-2-yl]-acetic acid]
